Reference: patent US20160089464A1, “MALODOR REDUCTION COMPOSITIONS” (The Procter & Gamble Company, priority 2014, published 2016)

Assay: Comment Code material properties: vapor pressure, ClogP, probability of ingredient color instability, odor detection threshold, melamine formaldehyde PMC headspace response ratio and leakage, liquid dish neat product liquid-air partition coefficient
Type: physicochemical
Details: Table 1 materials; each letter of the code is one property class (vapor pressure, ClogP, color instability, odor detection threshold, PMC headspace ratio, PMC leakage, liquid dish liquid-air partition coefficient)

| SMILES | Comment Code |
| --- | --- |
| C=CCCCCCCCCCO [Material 870] | DEFHJK |
| CC(C)Cc1ccc2ccccc2n1 [Material 849] | CEFHJK |
| O=C1CCCCCCCCCCOCCCCO1 [Material 562] | DGJ |
| CC(=CCCC1(C)C2CC3C(C2)C31C)CO (stereo not drawn) [Material 694] | DEFHJK |
| Cc1ccc(OC(=O)Cc2ccccc2)cc1 [Material 998] | DFHJ |
| C=C(C)[C@@H]1CCC2=CCC[C@@H](C)[C@]2(C)C1 [Material 1105] | BDEFHJK |
| CCC=CCC=CC=CC(=O)OCC [Material 1000] | BDEFHJK |
| CC(C)=CCCC1=CCC(C#N)CC1 (stereo not drawn) [Material 660] | DEFHJK |
| CCCCCC(=Cc1ccccc1)C(OCC)OCC [Material 723] | DEFHJ |
| CCCCCCC/C=C/C=O [Material 1067] | ADHKL |
| C=CCCC(=O)C1=CCCC2(CCCC2)C1 [Material 1038] | DGJK |
| CC(C)CCCC(C)CCCC(C)C=O (stereo not drawn) [Material 741] | BDFGJK |
| C=CC(C)(CCC=C(C)C)OC(C)OCC (stereo not drawn) [Material 916] | BDEFHJK |
| C=CCOC(=O)CCC1CCCCC1 [Material 746] | BDEFHJK |
| CC(C)=CCC/C(C)=C/CC/C(C)=C/CO [Material 1065] | DEFHJK |
| OCCOc1ccccc1 [Material 834] | BCEFGIK |
| CC1CCC(C(C)(C)S)C(=O)C1 (stereo not drawn) [Material 1059] | BDEFHIJKL |
| CC1CCC2(O1)C(C)(C)CCCC2(C)O (stereo not drawn) [Material 893] | DFHIJK |
| CC1=CCCC2(C)CCC(=C(C)C)CC12 (stereo not drawn) [Material 1031] | DEFHJKL |
| CC1=CCC23C(C)CCC(C(C)C)C2C13 (stereo not drawn) [Material 714] | ADEFHJKL |
| CC1=CCC(CCC(C)C(C)O)C1(C)C (stereo not drawn) [Material 1023] | DEFHJK |
| CC1=CC[C@@H]2C3CC([C@@H]2C1)[C@@]1(C3)OC1C (stereo partly drawn) [Material 1007] | DEFHJK |
| Cc1coc2c1CCC(C)C2 (stereo not drawn) [Material 802] | BCEFHIJKL |
| CC1CCC2=C1CC1CCC2(C)C1(C)C (stereo not drawn) [Material 621] | BDEFGJKL |
| CC(=O)OC(C)CC/C=C(\C)CCC=C(C)C (stereo not drawn) [Material 890] | DEFHJK |
| C=CC(=C)CCC=C(C)CCC=C(C)C=O [Material 613] | DHJK |
| COCCOC(C)OCc1ccccc1 (stereo not drawn) [Material 768] | BCEFHJK |
| CC(=O)c1cc(C(C)(C)C)cc2c1CCC2(C)C [Material 563] | DEFHJK |
| CC1CCC2C(C)(C)C3CC12CCC3(C)OC=O (stereo not drawn) [Material 566] | BDEFHJK |
| CC/C(=C/CC1CC=C(C)C1(C)C)CO (stereo not drawn) [Material 1024] | DEFHJK |

Same assay, conditions: cell strings several class symbols together; each letter is one property class of L1

| SMILES | Comment Code |
| --- | --- |
| O=C1CCC2(CCCCC2)O1 [Material 1039] | BCGIKL |
| CCC(C)CC(CC)CCCC(C)O (stereo not drawn) [Material 779] | BDEFGIJKL |
| CCCC(=O)OC1CC2CC1C1CC=CC21 (stereo not drawn) [Material 484] | DEFHJK |
| CCC(C)(O)CCCC(C)C (stereo not drawn) [Material 1054] | BDEFGIJKL |
| CC(=CCCC1(C)C2CC3C(C2)C31C)CO (stereo not drawn) [Material 694] | DEFHJK |
| CC1CCCCCCCCCCCCC(=O)C1 (stereo not drawn) [Material 206] | DEFGJK |
| CC(C)C(=O)OCCc1ccccc1 [Material 958] | DHJK |
| C/C=C\c1ccc(O)c(OC)c1 [Material 528] | CEFHIK |
| CC(O)CCC1C(C)CCCC1(C)C (stereo not drawn) [Material 1052] | BDEFHIJK |
| CCOC(=O)OC1C(C)CCC(C)C1C (stereo not drawn) [Material 1005] | BDEFHJKL |
| C=C(C)C1CCC(C)C(=O)C1 (stereo not drawn) [Material 419] | ACGIJKL |
| CC=Cc1ccc(O)c(OC)c1 [Material 214] | CEFHIK |
| CC(=O)C(C)O (stereo not drawn) [Material 760] | ACEFGIKL |
| C=CC(C)(O)CCC=C(C)C (stereo not drawn) [Material 157] | BCEFGIJK |
| CC1=CC(=O)[C@@H]2C[C@H]1C2(C)C [Material 1119] | ACEFGIJKL |
| C=C(C)C1CCC(C)(O)C1C (stereo not drawn) [Material 981] | BCEFGIJKL |
| C=C(C)COCC/C=C\CC [Material 1141] | ADEFHKL |
| CC/C=C\CCOC(=O)CCCC [Material 535] | BDEFHJKL |
| C=CCCC(=O)C1=CCCC2(CCCC2)C1 [Material 1038] | DGJK |
| CC(C)CC(=O)OCc1ccccc1 [Material 645] | BDEFHJK |
| CC(O)CCC1CCCCC1 (stereo not drawn) [Material 699] | BDEFHIK |
| O=C(OCc1ccccc1)c1ccccc1O [Material 641] | DFGJ |

| SMILES | Comment Code |
| --- | --- |
| Cc1ccc(C(C)C)cc1O [Material 575] | DHIJK |
| CCC=CCCO [Material 817] | ACEFHIKL |
| CC(C)C(=O)OC1CC2CCC1(C)C2(C)C (stereo not drawn) [Material 229] | BDEFHIJK |
| CC(=O)O.CCOc1cc(C=O)ccc1O [Material 379] | CHJ |
| CC(=O)OC(C)(C)C1CCC(C)CC1 (stereo not drawn) [Material 447] | BDEFHIJKL |
| CC(=O)OCCc1ccccc1 [Material 832] | BCEFHK |
| CCCc1ccc(O)c(OC)c1 [Material 440] | CEFHIJK |
| C=C1C=CC(C(C)C)CC1 (stereo not drawn) [Material 619] | ADEFGIJKL |
| O=Cc1ccc2c(c1)OCO2 [Material 287] | BCGIK |
| CC1=CCC23C(C)CCC(C(C)C)C2C13 (stereo not drawn) [Material 714] | ADEFHJKL |
| CCCC=CCO [Material 851] | ACEFHIKL |
| CC1=CC[C@@H]2C3CC([C@@H]2C1)[C@@]1(C3)OC1C (stereo partly drawn) [Material 1007] | DEFHJK |
| CCC(=O)OC1CC2C3C=CCC3C1C2(C)C (stereo not drawn) [Material 343] | DEFHJK |
| CCOc1cc(COC)ccc1O [Material 115] | CFGK |
| CC1CCC2=C1CC1CCC2(C)C1(C)C (stereo not drawn) [Material 621] | BDEFGJKL |
| c1ccc(COCc2ccccc2)cc1 [Material 454] | DEFHJK |
| CC=Cc1ccc(OC(C)=O)c(OC)c1 [Material 213] | CFHJK |
| CC1CCC2C(C)(C)C3CC12CCC3(C)OC=O (stereo not drawn) [Material 566] | BDEFHJK |
| CC1=CCC(CC#N)C1(C)C (stereo not drawn) [Material 585] | ACGIJKL |
| CCc1ccc(OC)c(O)c1 [Material 797] | CEFHIK |
| CC/C(=C/CC1CC=C(C)C1(C)C)CO (stereo not drawn) [Material 1024] | DEFHJK |
| CC(C)=CCCC(C)CCO (stereo not drawn) [Material 517] | BCHIJKL |

Same assay, conditions: letter codes A-L: vapor pressure, ClogP, probability of ingredient color instability, odor detection threshold, PMC headspace response ratio, PMC leakage, liquid dish liquid-air partition coefficient; Table 1 materials with at least one MORV from 1 to 5

| SMILES | Comment Code |
| --- | --- |
| COC1C=CC2C3CCC(C3)C12 (stereo not drawn) [Material 1120] | ACEFHJKL |
